Source: patent US8933074B2, “1,2-disubstituted heterocyclic compounds” (FORUM Pharmaceuticals Inc., priority 2008, dated 2015)

Molecular target: Human PDE10A1 (Homo sapiens, UniProt Q9Y233)
Test: hPDE10A1 enzyme inhibition
Format: biochemical
Settings: [3H]-cAMP substrate, 20 minutes at 37° C.; read-out: hPDE10A1 IC50 Band
Procedure: 50 μl samples of serially diluted Human PDE10A1 enzyme were incubated with 50 μl of [^3H]-cAMP for 20 minutes (at 37° C.). Reactions were carried out in Greiner 96 deep well 1 ml master-block. The enzyme was diluted in 20 mM Tris HCl pH7.4 and [^3H]-cAMP was diluted in 10 mM MgCl2, 40 mM Tris.HCl pH 7.4. The reaction was terminated by denaturing the PDE enzyme (at 70° C.) after which [^3H]-5′-AMP was converted to [^3H]-adenosine by adding 25 μl snake venom nucleotidase and incubating for 10 minutes (at 37° C.). Adenosine, being neutral, was separated from charged cAMP or AMP by the addition of 200 μl Dowex resin. Samples were shaken for 20 minutes then centrifuged for 3 minutes at 2,500 r.p.m. 50 μl of supernatant was removed and added to 200 μl of MicroScint-20 in white plates (Greiner 96-well Optiplate) and shaken for 30 minutes before reading on Perkin Elmer TopCount Scintillation Counter.
To check inhibition profile 11 μl of serially diluted inhibitor was added to 50 μl of [^3H]-cAMP and 50 ul of diluted Human PDE10A1 and assay was carried out as in the enzyme activity assay. Data was analysed using Prism software (GraphPad Inc).

Chain of Human PDE10A1 (Q9Y233 1-779 isoform Q9Y233-1): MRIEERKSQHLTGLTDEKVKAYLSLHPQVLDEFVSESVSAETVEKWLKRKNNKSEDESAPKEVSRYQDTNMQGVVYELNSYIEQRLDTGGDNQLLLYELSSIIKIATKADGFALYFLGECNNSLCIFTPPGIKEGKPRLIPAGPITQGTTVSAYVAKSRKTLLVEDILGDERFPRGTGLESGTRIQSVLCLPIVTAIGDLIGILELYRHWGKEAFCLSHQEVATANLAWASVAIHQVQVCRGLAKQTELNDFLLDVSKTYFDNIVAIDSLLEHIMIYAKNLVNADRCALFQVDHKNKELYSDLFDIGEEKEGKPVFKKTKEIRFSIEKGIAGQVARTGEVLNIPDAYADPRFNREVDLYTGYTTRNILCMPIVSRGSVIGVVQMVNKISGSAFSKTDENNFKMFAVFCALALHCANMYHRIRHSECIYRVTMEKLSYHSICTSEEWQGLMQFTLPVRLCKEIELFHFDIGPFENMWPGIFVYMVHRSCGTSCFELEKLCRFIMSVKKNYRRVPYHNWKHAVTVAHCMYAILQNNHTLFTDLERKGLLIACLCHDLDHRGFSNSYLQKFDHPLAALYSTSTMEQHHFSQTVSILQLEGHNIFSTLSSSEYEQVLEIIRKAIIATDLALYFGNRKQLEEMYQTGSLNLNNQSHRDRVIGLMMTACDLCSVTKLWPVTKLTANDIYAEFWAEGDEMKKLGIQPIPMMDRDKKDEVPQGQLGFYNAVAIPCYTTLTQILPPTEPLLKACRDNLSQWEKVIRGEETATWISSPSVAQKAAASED

| SMILES | IC50 [nM] |
| --- | --- |
| COc1ccc(C2=C(c3ccc(OCc4ccc5ccccc5n4)cc3)OC(C)(C)C2=O)cc1 [Example 262, 4-(4-methoxyphenyl)-2,2-dimethyl-5-(4-(quinolin-2-ylmethoxy)phenyl)furan-3(2H)-one] | ≤ 50 |
| Cc1ccc(COc2ccc(C3=C(c4ccncc4)OC(C)(C)C3=O)cc2)nc1 [Example 808, 2,2-dimethyl-4-(4-((5-methylpyridin-2-yl)methoxy)phenyl)-5-(pyridin-4-yl) furan-3(2H)-one] | ≤ 50 |
| Cc1cnc(COc2ccc(C3=C(c4ccncc4)OC(C)(C)C3=O)cc2)c(C)c1 [Example 809, 4-(4-((3,5-Dimethylpyridin-2-yl)methoxy)phenyl)-2,2-dimethyl-5-(pyridin-4-yl) furan-3(2H)-one] | ≤ 50 |
| CC1(C)OC(c2ccncc2)=C(c2ccc(OCc3ccc4cc(F)ccc4n3)cc2)C1=O [Example 810, 4-(4-((6-Fluoroquinolin-2-yl)methoxy)phenyl)-2,2-dimethyl-5-(pyridin-4-yl) furan-3(2H)-one] | ≤ 50 |
| CC1(C)OC(c2ccccc2)=C(c2ccc(OCc3ccc4ccccc4n3)cc2)C1=O [Example 811, 2,2-dimethyl-5-phenyl-4-(4-(quinolin-2-ylmethoxy)phenyl)furan-3(2H)-one] | ≤ 50 |
| CN1C(=O)C(c2ccc(OCc3ccc4ccccc4n3)cc2)=C(N2CCOCC2)C1=O [Example 812, 1-Methyl-3-morpholino-4-(4-(quinolin-2-ylmethoxy)phenyl)-1H-pyrrole-2,5-dione] | > 50 |
| CC1(C)OC(c2ccc(O)cc2)=C(c2ccc(OCc3ccc4ccccc4n3)cc2)C1=O [Example 813, 5-(4-hydroxyphenyl)-2,2-dimethyl-4-(4-(quinolin-2-ylmethoxy)phenyl)furan-3(2H)-one] | ≤ 50 |
| CC(=O)Nc1ccc(C2=C(c3ccc(OCc4ccc5ccccc5n4)cc3)C(=O)C(C)(C)O2)cc1 [Example 814, N-(4-(5,5-dimethyl-4-oxo-3-(4-(quinolin-2-ylmethoxy)phenyl)-4,5-dihydrofuran-2-yl)phenyl)acetamide] | ≤ 50 |
| CC1(C)OC(c2ccc(NS(C)(=O)=O)cc2)=C(c2ccc(OCc3ccc4ccccc4n3)cc2)C1=O [Example 815, N-(4-(5,5-dimethyl-4-oxo-3-(4-(quinolin-2-ylmethoxy)phenyl)-4,5-dihydrofuran-2-yl)phenyl)methanesulfonamide] | ≤ 50 |
| CC1(C)OC(c2ccc(N(S(C)(=O)=O)S(C)(=O)=O)cc2)=C(c2ccc(OCc3ccc4ccccc4n3)cc2)C1=O [Example 817, N-(4-(5,5-dimethyl-4-oxo-3-(4-(quinolin-2-ylmethoxy)phenyl)-4,5-dihydrofuran-2-yl)phenyl)-N-(methylsulfonyl)methanesulfonamide] | ≤ 50 |
| Cc1ccc(C2=C(c3ccc(OCc4ccc5ccccc5n4)cc3)C(=O)C(C)(C)O2)cc1 [Example 818, 2,2-dimethyl-4-(4-(quinolin-2-ylmethoxy)phenyl)-5-p-tolylfuran-3(2H)-one] | ≤ 50 |
| CC(=O)N(C(C)=O)c1ccc(C2=C(c3ccc(OCc4ccc5ccccc5n4)cc3)C(=O)C(C)(C)O2)cc1 [Example 819, N-acetyl-N-(4-(5,5-dimethyl-4-oxo-3-(4-(quinolin-2-ylmethoxy)phenyl)-4,5-dihydrofuran-2-yl)phenyl)acetamide] | ≤ 50 |
| CN1C(=O)C(c2ccc(OCc3ccc4ccccc4n3)cc2)=C(N2CCC(=O)CC2)C1=O [Example 820, 1-Methyl-3-(4-oxopiperidin-1-yl)-4-(4-(quinolin-2-ylmethoxy)phenyl)-1H-pyrrole-2,5-dione] | > 50 |
| CC1(C)OC(c2ccc3ocnc3c2)=C(c2ccc(OCc3ccc4ccccc4n3)cc2)C1=O [Example 821, 5-(benzo[d]oxazol-5-yl)-2,2-dimethyl-4-(4-(quinolin-2-ylmethoxy)phenyl)furan-3(2H)-one] | ≤ 50 |
| COc1ccc(-c2c(-c3ccc(OCc4ccc5ccccc5n4)cc3)n(C)c(=O)n2C)cc1 [Example 822, 4-(4-Methoxyphenyl)-1,3-dimethyl-5-(4-(quinolin-2-ylmethoxy)phenyl)-1H-imidazol-2(3H)-one] | > 50 |
| COc1ccc(C2=C(c3ccc(OCc4ccc5ccccc5n4)cc3)C(=O)NC2(C)C)cc1 [Example 823, 4-(4-methoxyphenyl)-5,5-dimethyl-3-(4-(quinolin-2-ylmethoxy)phenyl)-1H-pyrrol-2(5H)-one] | ≤ 50 |
| O=C1C(c2ccc(OCc3ccc4ccccc4n3)cc2)=C(c2ccncc2)OC12CCCC2 [Example 824, 2-(pyridin-4-yl)-3-(4-(quinolin-2-ylmethoxy)phenyl)-1-oxaspiro[4.4]non-2-en-4-one] | ≤ 50 |

Test system: rat
Test: not given
Settings: rats; cited from earlier work

| SMILES | apomorphine induced stereotypes | haloperidol induced catalepsy | rat brain dopamine levels |
| --- | --- | --- | --- |
| COc1ccc(Cc2nccc3cc(OC)c(OC)cc23)cc1OC [papaverine] | reduces | increases | reduces |
